Laboratory results from patent publication US20230092769A1 (SHANGHAI BENEMAE PHARMACEUTICAL CORPORATION, priority 2020, published 2023).
“And” between values parts separate entries of the source, which are not always exact repeats. Identical values can stand only once.

Legend:
Assay type in all cases: in vivo
[1] = test system: STZ-induced diabetic C57BL/6 mice; assay: Oral glucose tolerance test (OGTT) on Day 28, STZ-induced diabetic C57BL/6 mice; set-up: OGTT blood glucose AUC: unit: mM·min
Experimental: The mice fasted for about 6 hours were orally administrated with glucose solution (1 g/kg). Blood glucose was measured at indicated time points.
(§1) After one-week acclimation, the mice were fed with high fat diet with 60 kcal % fat (D12492, Research Diets) for 3 weeks before STZ injection. Diabetic model was induced with 5 consecutive days of multiple low-dose STZ injection (50 mg/kg, intraperitoneally; i.p.). During modeling period, the mice were fasted for 4 hours before STZ treatment each day. The STZ solution (5 mg/ml) was freshly prepared in 0.1 M sodium citrate buffer (pH 4.5) before use and injected within 10 minutes of preparation. Seven days later, the mice with non-fasted blood glucose between 16.7 mM and 27.7 mM were selected and randomized into different groups by blood glucose level and body weight. At 9 am (T=0 minute) of Day 1, the mice were subcutaneously administrated with vehicle, insulin glargine, beinaglutide, or a mixture of insulin glargine and beinaglutide, which were mixed immediately before injection (Table 3). After first injection, tail blood glucose levels were measured at various intervals after injection, at 15 minutes, 30 minutes, 60 minutes, 120 minutes, 180 minutes, and 240 minutes, respectively. Subsequently, the mice of four groups (No. 1, No. 2, No. 4, and No. 6) continued to receive multiple dosing for 4 weeks. Body weight was measured twice per week. On day 28, after blood glucose measurement, the mice were fasted for 6 hours from 9 am, followed by an oral glucose tolerance test (glucose solution: 1 g/kg, 10 ml/kg). The blood glucose was monitored at 0 minute (pre-glucose loading), 15 minutes, 30 minutes, 60 minutes and 120 minutes after glucose loading.

[2] = test system: STZ-induced diabetic C57BL/6 mice; assay: Fasting blood glucose on Day 28 after 6 hours fasting, STZ-induced diabetic C57BL/6 mice; details: Day 28, 6 hours fasting, IGlar 5 U/kg multiple dosing
Experimental: as §1, with “Subsequently, the mice of four groups (No. 1, No. 2, No. 4, and No. 6) continued to receive multiple dosing for 4 weeks.” left out, “On day 28, after blood glucose measurement, the mice were fasted for 6 hours from 9 am, followed by an oral glucose tolerance test (glucose solution: 1 g/kg, 10 ml/kg).” left out
On Day 28, the fasting blood glucose was measured after 6 hours fasting.

[3] = test system: STZ-induced diabetic C57BL/6 mice; assay: Blood glucose after single dosing in STZ-induced diabetic C57BL/6 mice (Example 2); details: for blood glucose 15 min / blood glucose 30 min / blood glucose 60 min / blood glucose 120 min / blood glucose 180 min / blood glucose 240 min / AUC(0-120 min) of blood glucose / blood glucose 0 min: single s.c. dose; for blood glucose 0 min: pre-dose
Experimental: Animals: Male C57BL/6 mice (n=70) were purchased from Shanghai Jihui Laboratory Animal Care Co., Ltd. Upon arrival, the mice were housed in an animal facility at Shanghai University of Medicine & Health Sciences, under constant temperature (20-24° C.) and humidity (40-70%). Housing was provided at 12:12-hour light-dark cycle.
Active agents: Insulin glargine was obtained from Sanofi and stored at a temperature of 2-8° C. Beinaglutide having the sequence of […](SEQ ID NO: 1) was obtained from Benemae (beinaglutide injection, 2 mg/mL) and stored at 2-8° C.
as §1

[4] = Body weight change during 4-week multiple dosing in STZ-induced diabetic C57BL/6 mice; details: for body weight change Day 0 / body weight change Day 4 / body weight change Day 7 / body weight change Day 8 / body weight change Day 10 / body weight change Day 12 / body weight change Day 14 / body weight change Day 16 / body weight change Day 18 / body weight change Day 20 / body weight change Day 22 / body weight change Day 24 / body weight change Day 26 / body weight change Day 28: IGlar 5 U/kg s.c., 1st week bid, 2nd to 4th week tid; for body weight change Day 0: baseline
Experimental: as §1

[5] = Insulin glargine 5 U/kg, group MEAN, n=6
[6] = Insulin glargine 5 U/kg, group MEAN, n=6, listed as IGlar
[7] = Insulin glargine 5 U/kg, individual animal
[8] = Insulin glargine 10 U/kg, group MEAN, n=6
[9] = Insulin glargine 10 U/kg, group MEAN, n=6, listed as IGlar
[10] = Insulin glargine 10 U/kg, individual animal

insulin glargine
blood glucose based on the AUC during OGTT (in words) ([1]; Day 28, glucose 1 g/kg oral, Bei 0.1 mg/kg, IGlar 5 U/kg, or IGlar 5 U/kg & Bei 0.05 mg/kg multiple dosing): significantly reduced blood glucose based on the AUC | OGTT blood glucose 0 min, MEAN ([1]; IGlar 5 U/kg, Day 28, group mean, 0 min): 13.98 mM | OGTT blood glucose AUC, MEAN ([1]; IGlar 5 U/kg, Day 28, group mean, 0-120 min): 2390.25 | OGTT blood glucose 15 min, MEAN ([1]; IGlar 5 U/kg, Day 28, group mean, 15 min): 27.90 mM | OGTT blood glucose 30 min, MEAN ([1]; IGlar 5 U/kg, Day 28, group mean, 30 min): 24.60 mM | OGTT blood glucose 60 min, MEAN ([1]; IGlar 5 U/kg, Day 28, group mean, 60 min): 20.04 mM | OGTT blood glucose 120 min, MEAN ([1]; IGlar 5 U/kg, Day 28, group mean, 120 min): 13.72 mM | OGTT blood glucose 0 min ([1]; IGlar 5 U/kg, Day 28, individual animals, 0 min): 16.1 mM and 9.4 mM and 7.6 mM and 15.9 mM and 20.9 mM | OGTT blood glucose AUC ([1]; IGlar 5 U/kg, Day 28, individual animals, 0-120 min): 2820.0 and 2205.0 and 2178.8 and 2133.0 and 2614.5 | OGTT blood glucose 15 min ([1]; IGlar 5 U/kg, Day 28, individual animals, 15 min): 33.3 mM and 25.4 mM and 24 mM and 25.9 mM and 30.9 mM | OGTT blood glucose 30 min ([1]; IGlar 5 U/kg, Day 28, individual animals, 30 min): 27.9 mM and 23.4 mM and 23.1 mM and 23.3 mM and 25.3 mM | OGTT blood glucose 60 min ([1]; IGlar 5 U/kg, Day 28, individual animals, 60 min): 23 mM and 18.6 mM and 19 mM and 16.4 mM and 23.2 mM | OGTT blood glucose 120 min ([1]; IGlar 5 U/kg, Day 28, individual animals, 120 min): 17.9 mM and 13 mM and 12.9 mM and 12.1 mM and 12.7 mM | fasting blood glucose, Mean ([2]; group mean): 14.0 ± 2.43 mM and 14.0 mM | fasting blood glucose ([2]; individual animal): 16.1 mM and 9.4 mM and 7.6 mM and 15.9 mM and 20.9 mM | blood glucose 15 min [3, 5]: 25.35 mM | blood glucose 30 min [3, 5]: 16.95 mM | blood glucose 60 min [3, 5]: 6.07 mM | blood glucose 120 min [3, 5]: 7.02 mM | blood glucose 180 min [3, 5]: 11.80 mM | blood glucose 240 min [3, 5]: 18.83 mM | AUC(0-120 min) of blood glucose ([3]; Insulin glargine 5 U/kg, group MEAN, n=6, in mM·min (unit assumed)): 2864 | AUC(0-120 min) of blood glucose [3, 6]: significant reduction of blood glucose | blood glucose 60 min [3, 6]: 6.07 ± 0.43 mM | blood glucose 15 min [3, 7]: 23.4 mM and 25.7 mM and 26.6 mM and 24.1 mM and 26.3 mM and 26 mM | blood glucose 30 min [3, 7]: 19.7 mM and 8.7 mM and 17.9 mM and 16.6 mM and 21.2 mM and 17.6 mM | blood glucose 60 min [3, 7]: 6.4 mM and 6.2 mM and 5.9 mM (2×) and 5.4 mM and 6.6 mM | blood glucose 120 min [3, 7]: 5.6 mM and 7.5 mM and 12.2 mM and 4.4 mM and 7.8 mM and 4.6 mM | blood glucose 180 min [3, 7]: 10.8 mM and 14.1 mM and 17.2 mM and 8.9 mM and 11.5 mM and 8.3 mM | blood glucose 240 min [3, 7]: 18.8 mM and 23.2 mM and 23.5 mM and 16.7 mM and 17.7 mM and 13.1 mM | AUC(0-120 min) of blood glucose ([3]; Insulin glargine 5 U/kg, individual animal, in mM·min (unit assumed)): 2864 and 3072 and 3731 and 2489 and 3047 and 2409 | blood glucose 0 min [3, 5]: 27.55 mM | blood glucose 0 min [3, 7]: 31.1 mM and 29.3 mM and 25.9 mM and 28.3 mM and 25.3 mM and 25.4 mM | blood glucose 15 min [3, 8]: 26.68 mM | blood glucose 30 min [3, 8]: 14.68 mM | blood glucose 60 min [3, 8]: 7.65 mM | blood glucose 120 min [3, 8]: 5.50 mM | blood glucose 180 min [3, 8]: 9.95 mM | blood glucose 240 min [3, 8]: 20.18 mM | AUC(0-120 min) of blood glucose ([3]; Insulin glargine 10 U/kg, group MEAN, n=6, in mM·min (unit assumed)): 3986 | AUC(0-120 min) of blood glucose [3, 9]: significant reduction of blood glucose | blood glucose 120 min [3, 9]: 5.50 ± 2.74 mM | blood glucose 180 min [3, 9]: 9.95 ± 5.22 mM | blood glucose 15 min [3, 10]: 24.4 mM (2×) and 23.6 mM and 30.3 mM and 29 mM and 28.4 mM | blood glucose 30 min [3, 10]: 17.3 mM and 10.6 mM and 3.1 mM and 11.1 mM and 26.1 mM and 19.9 mM | blood glucose 60 min [3, 10]: 9.6 mM and 5 mM and 7 mM and 5.2 mM and 13.3 mM and 5.8 mM | blood glucose 120 min [3, 10]: 10.8 mM and 4.2 mM and 5.4 mM and 3 mM and 5.3 mM and 4.3 mM | blood glucose 180 min [3, 10]: 19.3 mM and 9.4 mM and 6.1 mM and 5.8 mM and 6.7 mM and 12.4 mM | blood glucose 240 min [3, 10]: 26.4 mM and 16.1 mM and 15.4 mM and 14.3 mM and 19.3 mM and 29.6 mM | AUC(0-120 min) of blood glucose ([3]; Insulin glargine 10 U/kg, individual animal, in mM·min (unit assumed)): 3986 and 2308 and 2209 and 1991 and 3146 and 3254 | blood glucose 0 min [3, 8]: 27.77 mM | blood glucose 0 min [3, 10]: 26.7 mM and 25.5 mM and 29 mM and 24.6 mM and 30.2 mM and 30.6 mM | blood glucose after a single administration (in words) ([3]; STZ-induced hyperglycemic mice, single s.c. administration): significantly reduced blood glucose | body weight change Day 0 ([4]; group MEAN): 0.0 g | body weight change Day 0 ([4]; individual animal): 0.0 g | body weight change Day 4 ([4]; group MEAN): 0.0 g | body weight change Day 7 ([4]; group MEAN): 0.7 g | body weight change Day 8 ([4]; group MEAN): 0.7 g | body weight change Day 10 ([4]; group MEAN): 0.8 g | body weight change Day 12 ([4]; group MEAN): 0.7 g | body weight change Day 14 ([4]; group MEAN): 1.2 g | body weight change Day 16 ([4]; group MEAN): 1.3 g | body weight change Day 18 ([4]; group MEAN): 1.6 g | body weight change Day 20 ([4]; group MEAN): 1.7 g | body weight change Day 22 ([4]; group MEAN): 1.7 g | body weight change Day 24 ([4]; group MEAN): 1.8 g | body weight change Day 26 ([4]; group MEAN): 2.4 g | body weight change Day 28 ([4]; group MEAN): 2.4 ± 0.4 g and 2.4 g | body weight change Day 4 ([4]; individual animal): -0.2 g and 0.0 g and 0.6 g and -0.1 g and 0.3 g and -0.4 g | body weight change Day 7 ([4]; individual animal): 0.2 g and 0.7 g and 1.0 g (2×) and 0.8 g and 0.5 g | body weight change Day 8 ([4]; individual animal): 0.0 g and 1.1 g and 0.6 g and 0.7 g and 1.3 g and 0.4 g | body weight change Day 10 ([4]; individual animal): 0.1 g and 1.0 g (2×) and 0.7 g and 1.1 g and 0.8 g | body weight change Day 12 ([4]; individual animal): 0.2 g and 0.9 g and 0.4 g and 0.8 g and 1.3 g and 0.6 g | body weight change Day 14 ([4]; individual animal): 0.3 g and 1.3 g and 0.8 g (2×) and 2.0 g and 1.9 g | body weight change Day 16 ([4]; individual animal): 0.7 g and 1.3 g and 1.7 g (2×) and 1.0 g | body weight change Day 18 ([4]; individual animal): 0.9 g and 1.2 g and 2.4 g (2×) and 1.3 g | body weight change Day 20 ([4]; individual animal): 1.0 g (2×) and 1.9 g and 2.3 g and 2.5 g | body weight change Day 22 ([4]; individual animal): 1.2 g and 1.7 g and 2.1 g and 2.6 g and 1.0 g | body weight change Day 24 ([4]; individual animal): 1.3 g and 1.9 g and 2.3 g and 2.7 g and 0.6 g | body weight change Day 26 ([4]; individual animal): 1.5 g and 2.2 g and 3.3 g and 3.7 g and 1.2 g | body weight change Day 28 ([4]; individual animal): 1.7 g and 2.3 g and 2.9 g and 3.8 g and 1.4 g | weight gain on Day 28, IGlar alone vs combo (in words) ([4]; IGlar 5 U/kg vs IGlar 5 U/kg & Bei 0.05 mg/kg, 4-week treatment): induced weight gain significantly higher than the combinational therapy of beinaglutide and insulin glargine
